The results in this text go back to patent publication US4786627A, “Thiadiazole guanidines” (Reckitt & Colman Products Limited, priority 1987, dated 1988).

Like-named read-outs stand apart in the source and are kept apart here.

Series [1] deals with maximal electroshock seizures (MES). As to the kind of experiment: electroshock test, maximal electroshock seizures (MES), inhibition of hind limb tonus, rat. Type of series: in vivo. Conditions: read-out: Inhibition of Hind Limb Tonus ED50 (limits), RAT MES. Background: Protection in the maximal electroshock model is a classic sign of anticonvulsant action.
The test system is the same in series [2]. As to the kind of experiment: electroshock test, maximal electroshock seizures (MES), inhibition of hind limb tonus, mouse. It is filed as in vivo. Particulars: read-out: Inhibition of Hind Limb Tonus ED50 (limits), MOUSE MES. How it is done:
(§1) The pharmacological activity of the compounds of the invention have been determined according to the following procedures. Their anticonvulsant activity was determined in the metrazol antagonism test in mice (MMS) (Soaje-Echaque E; Lim RKS, J Pharmac Exp Ther 1962, 138, 224; Desmedt LKC; Niemegeers CJE; Lewi PJ; Janssen PAJ, Arzneim-Forsch (Drug Res), 1976, 26, 1592) and the electroshock test in mice (MES)(Tulloch IF; Walter DS; Howe GM; Howe SJ, Neuropharmacology 1982, 21, 555).

For series [3], the system named is maximal metrazol seizures (MMS). As to the kind of experiment: metrazol antagonism test, maximal metrazol seizures (MMS), inhibition of hind limb tonus, mouse. Type of series: in vivo. Particulars: read-out: Inhibition of Hind Limb Tonus ED50 (limits), MOUSE MMS. How it is done:
as §1

A short description of series [4]: neurotoxicity, rotorod test, mouse. It is filed as in vivo, mice. Conditions: in vivo, po.
From the text: (§2) ^(a) Dose at which 50% of trained animals fall off the rotorod
Series [5] relates to trained animals fall off the rotorod. As to the kind of experiment: neurotoxicity, rotorod test, mouse. It is filed as in vivo, mice. Conditions: oral, rotorod.
From the text: as §2
Series [6] relates to electrically and chemically induced seizures. Nature of the series: anticonvulsant activity in animal tests (electrically and chemically induced seizures). Particulars: rat and mouse, oral. Type of series: in vivo. As to the method:
as §1

The mark [7] stands for this setting: rat, MES, oral, t=1 hour, limits in parentheses.
Setting [8] is: mouse, MES, oral, t=1 hour, limits in parentheses.
[9] abbreviates: mouse, MMS, oral, t=1 hour, limits in parentheses.

For orientation: ED50 means the dose at which the effect has come halfway, by size or by number of responders. The TD50 is the 50% point of the dose-response relation for the toxic effect studied. Regarding `Cl.N=C(N)Nc1nnc(-c2ccccc2C(F)(F)F)s1` [Example 1, 2-Guanidino-5-[2-(trifluoromethyl)phenyl]-1,3,4-thiadiazole hydrochloride], the figures for the ED50 in series [1] (setting [7]), in series [2] (setting [8]) and in series [3] (setting [9]) were 22 mg/kg, 27 mg/kg and 45 mg/kg, respectively. This molecule gave a TD50 at 1 h in series [4] of 324 mg/kg. In addition, in series [5], the “level of neurotoxicity (in words)” value is “acceptable level”. Besides, the “anticonvulsant activity (in words)” value in series [6] is “potent anticonvulsants blocking both electrically and chemically induced seizures”.
Consider `NC(=O)N1c2ccccc2C=Cc2ccccc21` [carbamazepine], for which the ED50 in series [1] (setting [7]) came out at 4 mg/kg; in series [2] (setting [8]), 20 mg/kg; in series [3] (setting [9]) it was 11 mg/kg.
Take `O=C1NC(=O)C(c2ccccc2)(c2ccccc2)N1` [phenytoin]: the ED50 was found to be 14 mg/kg in series [1] (setting [7]), 8 mg/kg in series [2] (setting [8]) and 8 mg/kg in series [3] (setting [9]).
As for `CCC1(c2ccccc2)C(=O)NC(=O)NC1=O` [phenobarbital], the ED50 in series [1] (Rattus norvegicus, po, 1 h) is 9 mg/kg; in series [2] (Mus musculus, po, 1 h), 12 mg/kg; in series [3] (Mus musculus, po, 1 h), 4 mg/kg.
For the molecule `C/N=C(\N)Nc1nnc(-c2ccccc2C(F)(F)F)s1` [Example 2, 2-(3-Methylguanidino)-5-[2-(trifluoromethyl)phenyl]-1,3,4-thiadiazole], the results for the ED50 in series [2] (setting [8]) and in series [3] (setting [9]) were 49 mg/kg and 44 mg/kg, respectively. In addition, in series [4], the TD50 at 1 h is above 400 mg/kg. For the same molecule, in series [5], the “level of neurotoxicity (in words)” value is reported as “acceptable level”.
